IC50 and CC75 data for nine compounds are collected here from patent US6495580B1, “Compounds, compositions and methods for treating or preventing pneumovirus infection and associated diseases” (ViroPharma Incorporated, priority 1998, dated 2002).

What all share (type): cell-based
For one series, the system named is ovine RSV. Put plainly: Cell culture assay for inhibition of pneumovirus replication, ORSV. Conditions: protection from cytopathic effect. On the procedure:
(§1) The replication of many viruses may be quantitatively assessed in the laboratory in various cell or tissue culture systems. Such in vitro culture methodologies are available and useable by those skilled in the art for the propagation and quantitative measurement of the replication of pneumoviruses. The following procedure was used for the in vitro quantitative measure of RSV replication.
(§2) Using the procedure described in this example, compounds of the present invention were evaluated for their ability to inhibit the replication of the virus in cell culture. By adding compounds at various concentrations to the culture medium, a dose response effect of the compound on virus replication was determined. A useful quantitative measure of the inhibition of RSV replication in this assay is the concentration of the compound at which virus replication in cell culture is inhibited by 50% in comparison to that observed in the absence of the compound (50% Inhibitory Concentration, IC50). In the case of RSV, IC50 values are defined as the concentration of compound that protected 50% of the cell monolayer. from virus-induced cytopathic effect (syncytia formation).
(§3) Anti-pneumovirus compounds of the invention were screened for antiviral activity against RSV (strain Long) on cultured HEp2 cells. Standard 96-well culture plates were seeded with 4×10^4 HEp2 cells in 200 μL of Minimal Essential Medium with Earles salts (EMEM) supplemented with 10% fetal bovine serum (FBS). Twenty-four to 30 hours later, the cells were infected with a dilution of RSV in Medium 199 (GIBCO/BRL) with 5% FBS that had been titrated to yield>85% destruction of the cell monolayer in 60 hours. After 1 hour at […], compounds were added to wells of the plate in a final DMSO concentration of 0.5% as a series of 10 two-fold dilutions of the compound. Virus control wells (VC, no test compound) and cell culture control wells (CC, no virus, no test compound) were also included on each plate. Plates were incubated in a humidified atmosphere at 37° C. and 5% carbon dioxide. After 60 hours, 100 μL of a 5% solution of glutaraldehyde in water was added to each well, and the wells were incubated at room temperature for 1 hour. The fixative was removed, and the cells were stained with a 0.1% solution of crystal violet in water for 15-30 minutes. After rinsing and drying the plates, the optical density of the wells was measured at 570 nm (OD570).
(§4) To determine IC50 values for the test compounds,the mean value of the OD570 readings of the virus control wells (VC) on a plate was substracted from the OD570 readings of all wells on that plate. The IC50 values were then calculated according to the following formula:
(§5) IC50=[(Y—B)/(A—B)]×(H—L)+L
(§6) where Y represents the mean OD570 reading of the cell control wells (CC) divided by 2; B represents the mean OD570 reading of wells of the compound dilution nearest to and below Y; A represents the mean OD570 reading of wells of the compound dilution nearest to and above Y; L represents the compound concentration at B; and H represents the compound concentration at A.
(§7) A similar assay is useful for various strains of human RSV, including subtype A and subtype B viruses, as well as other pneumoviruses.

For another series, the system named is goat RSV. Description: Cell culture assay for inhibition of pneumovirus replication, GRSV. Particulars: protection from cytopathic effect. On the procedure: as §1, §2
Anti-pneumovirus compounds of the invention were screened for antiviral activity against RSV (strain Long) on cultured HEp2 cells. […] After rinsing and drying the plates, the optical density of the wells was measured at 570 nm (OD570).
To determine IC50 values for the test compounds,the mean value of the OD570 readings of the virus control wells (VC) on a plate was substracted from the OD570 readings of all wells on that plate. The IC50 values were then calculated according to the following formula: […]
where Y represents the mean OD570 reading of the cell control wells (CC) divided by 2; B represents the mean OD570 reading of wells of the compound dilution nearest to and below Y; A represents the mean OD570 reading of wells of the compound dilution nearest to and above Y; L represents the compound concentration at B; and H represents the compound concentration at A. […]

The test system of the next series is bovine RSV. Description: Cell culture assay for inhibition of pneumovirus replication, BRSV. Conditions: protection from cytopathic effect. On the procedure: as §1, §2, §3, §4, §5, §6, §7
The test system of the next series is human RSV subtype A. Put plainly: Cell culture assay for inhibition of pneumovirus replication (protection from virus-induced cytopathic effect), RSV-A. Here is the method:
as §1, §2, §3, §4, §5, §6, §7

Another series concerns human RSV subtype B. Description: Cell culture assay for inhibition of pneumovirus replication, RSV-B. Conditions: protection from cytopathic effect. Here is the method: as §1, §2, §3, §4, §5, §6, §7
The test system of a further series is normal cells. Description: MTT cytotoxicity assay. Particulars: highest compound concentration giving optical density ≧75% of control, 68 hours incubation. Here is the method:
This assay measures cell viability, and therefore cytotoxicity, by quantitatively detecting the in situ reduction of 3-(4,5-dimethylthiazol-2-yl)-2,5-diphenyltetrazolium bromide (MTT) by viable cells. Cells are seeded in 96-well plates in DMEM containing 5% FBS at a density of 4×10^3 cells per well. After incubation for 4 hours at 37° C. and 5% CO2, 2-fold serial dilutions of compound in 1% DMSO (or solvent alone) are added to quadruplicate wells and the plates are incubated for an additional 68 hours at 37° C. and 5% CO2, which is equivalent to 3 to 4 cell doublings. The culture medium is removed, and the cells are treated with 1 mg/ml of MTT in phosphate-buffered saline, pH 7.2 for 4 hours at 37° C. and 5% CO2. After removal of the unreduced MTT, the reduced blue formazan crystals produced by the viable cells are solubilized by the addition of 0.04N HCl in isopropanol. The optical density at 570 nm (OD570) of each well is read using a suitable microplate reader. Cell viability is expressed as the percentage of optical density for compound-treated cells relative to the optical density of solvent alone-treated control wells. The highest compound concentration resulting in an optical density of≧75% of the control is represented as the cellular cytotoxicity value (CC75).

[1] abbreviates: human respiratory syncytial virus.
[2] abbreviates: Activity against human RSV subtype A (Table 2), values marked 2: protection achieved only 70-90% at highest concentrations tested, read-out: IC50.
Where [3] appears, read: human RSV subtype A, concentration protecting 50% of cell monolayer from virus-induced cytopathic effect, HEp2 cells, 60 hours, read-out: IC50 RSV-A.

Like-named read-outs stand apart in the source and are kept apart here.

Turning to `NC(=O)c1ncn([C@@H]2O[C@H](CO)[C@@H](O)[C@H]2O)n1` [Ribavirin, 1-beta-D-ribofuranosyl-1H-1,2,4-triazole-3-carboxamide, reference compound], the half-inhibitory concentration (IC50) in the series with ovine RSV (setting [1]) was determined as 15500 nM; in the series on goat RSV it was 3300 nM; in the series on bovine RSV (Bovine orthopneumovirus), 7500 nM; in the series with human RSV subtype A (human respiratory syncytial virus, HEp-2, human RSV subtype A, concentration protecting 50% of cell monolayer from virus-induced cytopathic effect, HEp2 cells, 60 hours, read-out: IC50 RSV-A) it was 24300 nM; with human RSV subtype A (human respiratory syncytial virus, Activity against human RSV subtype A (Table 2), values marked 2: protection achieved only 70-90% at highest concentrations tested, read-out: IC50), 24300 nM; in the series with human RSV subtype B (setting [1]), 17700 nM. The same compound gave a CC75 in the series with normal cells of 9400 nM.

In the case of `Cc1nnnn1/N=C/c1ccc(O)c(C(c2ccc(O)cc2)c2cc(/C=N/n3nnnc3C)ccc2O)c1` [Example 6, 5,5′-Bis[1-(((5-methyl-1H-tetrazolyl)imino)methyl)]-2,2′,4″-methylidynetrisphenol], the IC50 was 1 nM with ovine RSV; 1 nM in the series with goat RSV; 1 nM with bovine RSV; 1 nM with human RSV subtype A (setting [2]); 1 nM in the series on human RSV subtype A (setting [3]); 2 nM in the series on human RSV subtype B. Besides, the CC75 with normal cells was 3100 nM.

`Nc1ncnn1N=Cc1ccc(O)c(C(c2ccc(O)cc2)c2cc(C=Nn3ncnc3N)ccc2O)c1` (stereo not drawn) [Example 3, 5,5′-Bis[1-(((5-amino-1H-1,2,4 triazolyl)imino)methyl)]-2,2′, 4″t-methylidyne trisphenol]: the IC50 in the series on ovine RSV was 170 nM; with bovine RSV, 10 nM; with human RSV subtype A (setting [2]) it was 50 nM; in the series with human RSV subtype A (setting [3]), 50 nM; with human RSV subtype B, 460 nM. Besides, the CC75 in the series with normal cells worked out at 12500 nM.

As to `Nc1nnnn1N=Cc1ccc(O)c(Cc2cc(C=Nn3nnnc3N)ccc2O)c1` [Example 8], the concentration for half-maximal inhibition (IC50) in the series on bovine RSV came to 16200 nM; with human RSV subtype A (setting [2]), 370 nM; in the series on human RSV subtype A (setting [3]) it was 370 nM; with human RSV subtype B, 47300 nM. The CC75 in the series with normal cells turned out to be 9400 nM.

Take `Nc1nncn1N=Cc1ccc(O)c(C(c2ccc(O)cc2)c2cc(C=Nn3cnnc3N)ccc2O)c1` (stereo not drawn) [Example 4, 5,5′-Bis[4-(((3-amino-4H-1,2,4-triazolyl)imino)methyl)]-2,2′,4″-methylidyne trisphenol]: the IC50 with bovine RSV is 270 nM; with human RSV subtype A (setting [2]) it was 110 nM; with human RSV subtype A (setting [3]), 110 nM; with human RSV subtype B, 150 nM. In the series with normal cells, the CC75 was found to be 18800 nM.

With `COc1ccc(C(c2ccc(C=Nn3nnnc3N)cc2O)c2ccc(C=Nn3nnnc3N)cc2O)cc1` (stereo not drawn) [Example 2, 5,5′-Bis[1-(((5-amino-1H-tetrazolyl)imino)methyl)]-4″-methoxyphenyl-2,2′-benzylidenebisphenol], the IC50 in the series on bovine RSV came to 1 nM; in the series with human RSV subtype A (setting [2]), 1 nM; in the series with human RSV subtype A (setting [3]) it was 1 nM; with human RSV subtype B, 8 nM. Further, the CC75 in the series on normal cells is greater than 150000 nM.

Regarding `Nc1nnn(N=Cc2ccc(C(c3ccc(O)cc3)c3ccc(C=Nn4nnc(N)n4)cc3O)c(O)c2)n1` (stereo not drawn) [Example 5, 5,5′-Bis[2-(((5-amino-2H-tetrazolyl)imino)methyl)]-2,2′,4″-methylidynetrisphenol], the half-maximal inhibitory concentration (IC50) in the series on ovine RSV came to 1200 nM; in the series on bovine RSV it was 1700 nM; in the series with human RSV subtype A (setting [2]) it was 90 nM; in the series with human RSV subtype A (setting [3]), 90 nM; in the series with human RSV subtype B it was 1900 nM. In addition, the CC75 with normal cells is greater than 50000 nM.

For `Nc1nnnn1N=Cc1ccc(O)c(C(c2ccc(O)cc2)c2cc(C=Nn3nnnc3N)ccc2O)c1` (stereo not drawn) [Example 1, 5,5′-Bis[1-(((5-amino-1H-tetrazolyl)imino)methyl)]2,2′,4″-methylidynetrisphenol], the IC50 in the series with ovine RSV amounted to 2 nM; in the series on goat RSV, 1 nM; in the series with bovine RSV it was 3 nM; in the series on human RSV subtype A (setting [2]) it was 1 nM; with human RSV subtype A (setting [3]) it was 1 nM; in the series on human RSV subtype B, 8 nM. The compound also had a CC75 in the series on normal cells greater than 12500 nM.

For the compound `Nc1nnnn1N=Cc1ccc(C(c2ccccc2)c2ccc(C=Nn3nnnc3N)cc2O)c(O)c1` (stereo not drawn) [Example 7, 5,5′-Bis[1-(((5-amino-1H-tetrazolyl)imino)methyl)]-2,2′-benzylidenebisphenol], the IC50 in the series on human RSV subtype A (setting [2]) and in the series with human RSV subtype A (setting [3]) was 1 nM throughout. The same compound registered a CC75 in the series on normal cells greater than 6300 nM.
